The source of these data is US6376670B1, “Quinoline-indole antimicrobial agents, uses and compositions related thereto” (Sepracor Inc., priority 1997, dated 2002).

Assay [1] concerns S. aureus 8325-4. In words: Post-antibiotic effect (PAE), broth dilution method. The assay is classed as cell-based. The note with it: exposed to 5×MIC for 60 min before washout; PAE = T-C. As to the method: (§1) Activities of the quinoline-indoles and comparator agents were determined against MSSA (n=32), MRSA (n=31) and VISA (n=7). Susceptibility testing on MH agar was performed using an inoculum of 10^6 c.f.u. Bactericidal, lytic and PAEs were determined on S. aureus 8325-4 in MH broth. Samples were removed for viable numbers on MH agar (for bactericidal response) and culture turbidity (600 nm) (for lytic response). PAEs were determined by a broth dilution method following exposure of bacteria to drugs at 5×MIC for 60 min.
The PAE, defined as the lag period before the target organism resumes a normal growth rate after exposure to an inhibitor, was determined for D, A, and rifampin (control) against S. aureus 8325-4. Organisms were exposed to 5×MIC for 60 min. before washout and PAE calculated as T-C, wherein T=time required for treated cells to increase 1 log CFU/mL; and C=time required for non-treated control to increase 1 log CFU/ml. after washout with fresh medium. PAEs for D and A were both 40 min and for the rifampin control PAE was 180 mins. The rifampin PAE is in agreement with literature values.

In assay [2] the test system is S. aureus 8325-4. Nature of the assay: Lytic response (culture turbidity 600 nm) in MH broth. The assay is classed as cell-based. Particulars: added at 5×, 10×, and 20×MIC to early log phase cultures. As to the method: as §1
The effects of the quinoline-indoles, and ciprofloxacin and rifampin (controls) on the integrity of S. aureus 8325-4 were examined following addition at 5×, 10×, and 20×MIC to early log phase cultures.
The lysis experiments were performed using classical “time kill-curve” methodology. See V. Lorian, Antibiotics in Laboratory Medicine, 4th ed., Chapter 2; Williams & Wilkins, Baltimore, 1996 (ISBN 0-683-05169-5). Bacteria (e.g., S. aureus) are exposed in liquid culture (early log phase approx […]) to multiples (typically 2×, 5×, 10×, and 20×) of the single cell agar MIC. Drug-free controls are also included. […] The samples are diluted in fresh drug-free medium and aliquots from a range of dilutions spread onto drug-free agar plates and those giving 30-300 colony forming units/plate are counted for quantification of survivors versus time of drug exposure. […]

Consider `CO[C@H]1/C=C/O[C@@]2(C)Oc3c(C)c(O)c4c(O)c(c(/C=N/N5CCN(C)CC5)c(O)c4c3C2=O)NC(=O)/C(C)=C\C=C\[C@H](C)[C@H](O)[C@@H](C)[C@@H](O)[C@@H](C)[C@H](OC(C)=O)[C@@H]1C` [rifampin], for which the “post-antibiotic effect (PAE)” value in the assay with S. aureus 8325-4 [1] was 180 min. Moreover, in the assay on S. aureus 8325-4 [2], the “bactericidal mechanism of action (lytic versus non-lytic)” value was “non-lytic”.
